These are literature values, as cited in patent US20250387523A1, “COMBINATION THERAPY OF RADIONUCLIDE COMPLEX” (Novartis AG, priority 2021, published 2025).

Series [1] has as its system newly diagnosed glioblastoma. The settings on record: newly diagnosed patients; temozolomide added to radiation therapy (radiotherapy alone 12.1 months).
Series [2] deals with newly diagnosed glioblastoma.
Series [3] relates to glioblastoma.
In series [4] the test system is recurrent glioblastoma. The settings on record: randomized 2:1.

Read-outs that look alike come from different tables or passages of the source.

For `Cn1nnc2c(C(N)=O)ncn2c1=O` [temozolomide, 3,4-Dihydro-3-methyl-4-oxoimidazo[5,1-d][1,2,3,5]tetrazine-8-carboxamide], in series [1], the median overall survival was 14.6 months. Also, the median survival in series [2] (patients with a methylated MGMT promoter, temozolomide and radiotherapy (radiotherapy only 15.3 months, P=0.007)) is given as 21.7 months; in series [2] (tumors not methylated at the MGMT promoter, temozolomide plus radiotherapy (radiotherapy only 11.8 months, P=0.06)), 12.7 months. The “longer median survival with MGMT promoter methylation” value in series [3] (glioblastoma patients treated with temozolomide, MGMT promoter methylation present vs lacking) is “approximately 50%”. Moreover, the clinical benefit result in series [3] (patients that lack MGMT promoter methylation) is “no clinical benefit”.

For the compound `O=NN(CCCl)C(=O)NC1CCCCC1` [lomustine], in series [4], the “median OS” value is listed as 8.6 months and the “median PFS” value is recorded as 1.5 months.
